Patent US8980933B2, “Combretastatin analogs for use in the treatment of cancer” (Universitat Bayreuth, priority 2010, dated 2015)

Tests used:
Format in all cases: cell-based, human
HL-60 cells [1] = assay: Mitochondrial membrane assay (JC-1), HL-60; settings: 5 μM, red/green fluorescence ratio relative to untreated controls (100%), mean ± SD
Protocol: (§1) Values represent means of four independent experiments±standard deviation.
(§2) Changes in mitochondrial membrane potential were determined by the Mitochondrial Membrane Detection Kit (Stratagene, La Jolla, Calif., USA) according to the manufacturer's procedure. 72 h following treatment with 5 μM of the test compounds, cell samples were centrifuged at 400 g for 5 min. The pellets were resuspended in 500 μL diluted JC-1 solution, incubated at 37° C. for 15 min (HL-60) and then centrifuged again for 5 min at 400 g. After washing, the pellets were resuspended in 100 μL PBS and transferred into the wells of a black 96-well plate. The red (λex=585 nm, λem=590 nm) and green (λex=510 nm, λem=527 nm) fluorescence intensities were measured and their ratio was calculated.

HL-60 cells [2] = assay: ROS generation, NBT assay, HL-60; settings: 50 μM, relative to untreated controls (1%), mean ± SD
Protocol: (§3) The generation of reactive oxygen species (ROS) in tumor cells is a sign of cellular stress resulting in severe damage of cellular components such as DNA, lipids or proteins.
(§4) For the NBT assay, HL-60 cells (0.5·10^6/mL) were plated in 96-well tissue culture plates, and test compounds were added after 24 h incubation at 37° C. to achieve a final concentration of 50 μM. […] After removal of the cell medium by centrifugation, the cells in each well were resuspended in 100 μL 0.1% NBT, and the plates were placed in the incubator for 1 h. The reduced NBT was solubilized with 100 μl 2 M KOH and 130 μl DMSO for 30 min. The absorbance was measured for each well at 630 and 405 nm (background) using an ELISA plate reader. The adherent 518A2 cells (0.5·10^4/mL) were seeded out in 96-well tissue culture plates after trypsinization and incubation for 24 h at 37° C. to allow attachment, then treated similarly, only that the medium was removed prior to incubation with NBT for 4 h. All experiments were carried out in quadruplicate.

518A2 cells [3] = assay: Mitochondrial membrane assay (JC-1), 518A2; settings: 5 μM, red/green fluorescence ratio relative to untreated controls (100%), mean ± SD
Protocol: as §1, §2

518A2 cells [4] = assay: ROS generation, NBT assay, 518A2; settings: 50 μM, relative to untreated controls (1%), mean ± SD
Protocol: as §3, §4

[5] = system: MCF-7/Topo breast carcinoma cells; assay: MTT cell growth inhibition, MCF-7/Topo; settings: MCF-7/Topo (BCRP+)
Protocol: The effects of the compounds 5b, 6b, 8a, and 8e according to the present invention and of the reference compound 25f (Wang et al., J. Med. Chem. 2002, 45, 1697-1711) on cells of the following human tumor cell lines were evaluated: 518A2 melanoma, HL-60 leukemia, HT-29 colon carcinoma, KB-V1/Vbl cervical carcinoma, and MCF-7/Topo breast carcinoma.
The HL-60 cells were obtained from the German Collection of Biological Material (DSMZ), Braunschweig, Germany; the human 518A2 melanoma cells as well as the testicular germ cell tumor cell lines H12.1 and 1411HP were cultured in the department of oncology and hematology, Medical Faculty of the Martin-Luther University, Halle, Germany; the KBV1/Vbl and the MCF-7/Topo cells were obtained from the Institute of Pharmacy of the University Regensburg, Germany; and the colon HT-29 cells from the University Hospital Erlangen, Germany. The HL-60 and the HT-29 cells were grown in RPMI-1640 medium supplemented with 10% fetal calf serum (FCS), 100 IU/mL penicillin G, 100 μg/mL streptomycin sulfate, 0.25 μg/mL amphotericin B and 250 μg/mL gentamycine (all from Gibco, Egenstein, Germany). The 518A2 and the KB-V1/Vbl cells were cultured in Dulbecco's Modified Eagle Medium (D-MEM, Gibco) containing 10% FCS, 100 IU/mL penicillin G, 100 μg/mL streptomycin sulfate, 0.25 μg/mL amphotericin B and 250 μg/mL gentamycine. The MCF-7/Topo cells were grown in E-MEM medium (Sigma) supplemented with 2.2 g/L NaHCO3, 110 mg/L sodium pyruvate and 5% FCS. The cells were maintained in a moisture-saturated atmosphere (5% CO2) at 37° C. in 75-mL culture flasks (Nunc, Wiesbaden, Germany). They were serially passaged following trypsinisation by 0.05% trypsin/0.02% EDTA (PAA laboratories, Clbe, Germany). Mycoplasma contamination was routinely monitored, and only mycoplasma-free cultures were used.
MTT [3-(4,5-dimethylthiazol-2-yl)-2,5-diphenyltetrazolium bromide](ABCR) was used to identify viable cells which reduce it to a violet formazan (Mosmann, J. Immunol. Methods 1983, 65, 55-63). HL-60 leukemia cells (5×10^5/mL), and cells (5×10^4/mL) of 518A2 melanoma, HT-29 colon, KB-V1/Vbl cervix and MCF-7/Topo breast carcinoma were seeded out in 96-well tissue culture plates and cultured for 24 h. Incubation (5% CO2, 95% humidity, 37° C.) of the cells following treatment with the test compounds was continued for 24, 48 or 72 h. Blank and solvent controls were treated identically. […] The microplates were gently shaken in the dark for 30 min and absorbance at 570 nm and 630 nm (background) was measured with an ELISA plate reader. All experiments were carried out in quadruplicate; the percentage of viable cells was calculated as the mean±SD with controls set to 100%.

[6] = system: KB-V1/Vbl cervical carcinoma cells; assay: MTT cell growth inhibition, KB-V1/Vbl; settings: KB-V1/Vbl (Pgp+)
Protocol: The MCF-7/Topo cells were grown in E-MEM medium (Sigma) supplemented with 2.2 g/L NaHCO3, 110 mg/L sodium pyruvate and 5% FCS. The cells were maintained in a moisture-saturated atmosphere (5% CO2) at 37° C. in 75-mL culture flasks (Nunc, Wiesbaden, Germany). They were serially passaged following trypsinisation by 0.05% trypsin/0.02% EDTA (PAA laboratories, Clbe, Germany). Mycoplasma contamination was routinely monitored, and only mycoplasma-free cultures were used.
HL-60 leukemia cells (5×10^5/mL), and cells (5×10^4/mL) of 518A2 melanoma, HT-29 colon, KB-V1/Vbl cervix and MCF-7/Topo breast carcinoma were seeded out in 96-well tissue culture plates and cultured for 24 h. […] Blank and solvent controls were treated identically. MTT in phosphate buffered saline (5 mg/mL) was added to a final concentration of 0.05% (HL-60, 518A2) or 0.1% (HT-29, KB-V1/Vbl, MCF-7/Topo). After 2 h the formazan precipitate was dissolved in 10% sodium dodecylsulfate in DMSO containing 0.6% acetic acid in the case of the HL-60 cells. For the adherent 518A2, KB-V1/Vbl, MCF-7/Topo and HT-29 cells the microplates were swiftly turned to discard the medium before adding the solvent mixture. The microplates were gently shaken in the dark for 30 min and absorbance at 570 nm and 630 nm (background) was measured with an ELISA plate reader. All experiments were carried out in quadruplicate; the percentage of viable cells was calculated as the mean±SD with controls set to 100%.

| Compound | Intact mitochondria [%] in HL-60 cells after 72 h (HL-60 cells [1]) | NBT Reduction [%] in HL-60 cells after 24 h (HL-60 cells [2]) | Intact mitochondria [%] in 518A2 cells after 72 h (518A2 cells [3]) | NBT Reduction [%] in 518A2 cells after 24 h (518A2 cells [4]) | cytotoxicity / efficacy (comparison) [5] | efficacy (comparison) [6] |
| --- | --- | --- | --- | --- | --- | --- |
| COc1cc(-c2ncn(C)c2-c2ccc3c(c2)c(Cl)cn3C)cc(N)c1OC [compound 8e, 1-methyl-4-(3-amino-4,5-dimethoxyphenyl)-5-(N-methyl-3-chloroindol-5-yl)-imidazole] | 60 ± 15% | 6.4 ± 0.3% | 77 ± 8% | 1.6 ± 0.3% | greater efficacy than 25f and 5b/6b | greater efficacy than 25f and 5b/6b |
| COc1cc(-c2ncoc2-c2ccc(N(C)C)cc2)cc(N)c1OC [8b, 4-(3′-Amino-4′,5′-dimethoxyphenyl)-5-(4″-N,N-dimethylaminophenyl)-oxazole] | 62 ± 12% | 3.3 ± 0.2% | 82 ± 8% | 1.4 ± 0.3% |  |  |
| COc1ccc(-c2c(-c3cc(N)c(OC)c(OC)c3)ncn2C)cc1F [8d, 1-Methyl-4-(3′-amino-4′,5′-dimethoxyphenyl)-5-(3″-fluoro-4-methoxyphenyl)-imidazole] | 90 ± 22% | 1.4 ± 0.2% | 98 ± 15% | 1.2 ± 0.1% |  |  |
| COc1ccc(-c2c(-c3cc(Cl)c(OC)c(OC)c3)ncn2C)cc1F [compound 5c, 1-Methyl-4-(3′-chloro-4′,5′-dimethoxyphenyl)-5-(3″-fluoro-4-methoxyphenyl)-imidazole] | 55 ± 7% | 4.8 ± 0.5% | 84 ± 6% | 1.6 ± 0.1% |  |  |
| COc1ccc(-c2c(-c3cc(N)c(OC)c(OC)c3)ncn2C)cc1O [8c, 1-Methyl-4-(3′-amino-4′,5′-dimethoxyphenyl)-5-(3″-hydroxy-4-methoxyphenyl)-imidazole] | 76 ± 19% | 1.8 ± 0.3% | 94 ± 7% | 1.1 ± 0.0% |  |  |
| COc1ccc(-c2c(-c3cc(Br)c(OC)c(OC)c3)ncn2C)cc1F [compound 6c, 1-Methyl-4-(3′-bromo-4′,5′-dimethoxyphenyl)-5-(3″-fluoro-4″-methoxyphenyl)-imidazole] | 60 ± 15% | 3.9 ± 0.1% | 89 ± 10% | 1.4 ± 0.3% |  |  |
| COc1cc(-c2ncn(C)c2-c2ccc(N(C)C)cc2)cc(Br)c1OC [compound 6d, 1-Methyl-4-(3′-bromo-4′,5′-dimethoxyphenyl)-5-(4″-N,N-dimethylaminophenyl)-imidazole] | 63 ± 13% | 6.7 ± 0.8% | 82 ± 7% | 1.6 ± 0.3% |  |  |
| COc1cc(-c2ncn(C)c2-c2ccc(N(C)C)cc2)cc(Cl)c1OC [compound 5d, 1-Methyl-4-(3′-chloro-4′,5′-dimethoxyphenyl)-5-(4″-N,N-dimethylaminophenyl)-imidazole] | 61 ± 13% | 6.0 ± 0.9% | 80 ± 7% | 2.4 ± 0.4% |  |  |
